Calls of active or inactive are those of the source. The rule behind the calls is not given here.
Columns and labels:
Conditions in all cases: Abdomen
Mus musculus [1] = experiment: Antinociceptive activity in Swiss albino mouse assessed as inhibition of acetic acid-induced abdominal constriction at 10 mg/kg, po administered 30 mins prior to testing measured for 10 mins starting 5 mins after acetic acid injection relative to control; format: functional
Mus musculus [2] = experiment: Antinociceptive activity in Swiss albino mouse assessed as inhibition of acetic acid-induced abdominal constriction at 20 mg/kg, po administered 30 mins prior to testing measured for 10 mins starting 5 mins after acetic acid injection relative to control; format: functional
Mus musculus [3] = experiment: Antinociceptive activity in Swiss albino mouse assessed as inhibition of acetic acid-induced abdominal constriction at 40 mg/kg, po administered 30 mins prior to testing measured for 10 mins starting 5 mins after acetic acid injection relative to control; format: functional
Mus musculus [4] = experiment: Antinociceptive activity in Swiss albino mouse assessed as inhibition of acetic acid-induced abdominal constriction at 40 mg/kg, po administered 30 mins prior to testing measured for 10 mins starting 5 mins after acetic acid injection in presence of alpha-2 adrenergic receptor antagonist yohimbine; format: functional, organism-based
Mus musculus [5] = experiment: Antinociceptive activity in Swiss albino mouse assessed as inhibition of acetic acid-induced abdominal constriction at 80 mg/kg, po administered 30 mins prior to testing measured for 10 mins starting 5 mins after acetic acid injection relative to control; format: functional
Mus musculus [6] = experiment: Antinociceptive activity in Swiss albino mouse assessed as inhibition of acetic acid-induced abdominal constriction at 30 mg/kg, po administered 30 mins prior to testing measured for 10 mins starting 5 mins after acetic acid injection relative to control; format: functional
Mus musculus [7] = experiment: Antinociceptive activity in Swiss albino mouse assessed as inhibition of acetic acid-induced abdominal constriction at 30 mg/kg, po administered 30 mins prior to testing measured for 10 mins starting 5 mins after acetic acid injection in presence of alpha-2 adrenergic receptor antagonist yohimbine; format: functional, organism-based
Mus musculus [8] = experiment: Antinociceptive activity in Swiss albino mouse assessed as inhibition of acetic acid-induced abdominal constriction at 20 mg/kg, po administered 30 mins prior to testing measured for 10 mins starting 5 mins after acetic acid injection in presence of alpha-2 adrenergic receptor antagonist yohimbine; format: functional, organism-based

| Structure (SMILES) | inhibition in vivo at 10 mg/kg (Mus musculus [1]) [%] | inhibition in vivo at 20 mg/kg (Mus musculus [2]) [%] | inhibition in vivo at 40 mg/kg (Mus musculus [3]) [%] | inhibition (Mus musculus [4]) | inhibition in vivo at 80 mg/kg (Mus musculus [5]) [%] | inhibition in vivo at 30 mg/kg (Mus musculus [6]) [%] | inhibition (Mus musculus [7]) | inhibition (Mus musculus [8]) | inhibition (Mus musculus [1]) | inhibition (Mus musculus [6]) |
| --- | --- | --- | --- | --- | --- | --- | --- | --- | --- | --- |
| CCC/C=C/c1c(C)nn(CCCN2CCN(c3ccc(C)cc3)CC2)c(=O)c1N | 0 | 16 | 36 | inactive |  |  |  |  |  |  |
| Cc1c(C#N)c(-c2ccccc2)nn1CCCN1CCN(c2cccc(Cl)c2)CC1 |  | 0 | 23 | inactive |  |  |  |  |  |  |
| CC(=O)c1cccn1CCCN1CCN(c2ccc([N+](=O)[O-])cc2)CC1 |  | 11 | 0 |  | 9 |  |  |  |  |  |
| CCc1c(C)nn(CCCN2CCN(c3ccc(C)cc3)CC2)c(=O)c1N | 23 |  |  |  |  | 45 | inactive |  |  |  |
| CC/C=C/c1c(C)nn(CCCN2CCN(c3ccc(C)cc3)CC2)c(=O)c1N | 5 | 35 | 45 |  |  |  |  | inactive |  |  |
| Cc1c(C#N)c(-c2ccccc2)nn1CCCN1CCN(c2ccc(F)cc2)CC1 | 9 | 28 | 51 | inactive |  |  |  |  |  |  |
| CCc1nn(CCCN2CCN(c3ccc(C)cc3)CC2)c(=O)c(N)c1C(C)=O | 10 | 42 | 41 |  |  |  |  | inactive |  |  |
| C=Cc1c(C)nn(CC(C)CN2CCN(c3ccc(C)cc3)CC2)c(=O)c1N (configuration not stated) | 17 |  |  |  |  | 47 | inactive |  |  |  |
| C=Cc1c(C)nn(CCCN2CCN(c3ccc(F)cc3)CC2)c(=O)c1N | 0 |  |  |  |  | 28 | inactive |  |  |  |
| Cc1ccc(N2CCN(CCCn3nc(-c4ccccc4)c(C#N)c3C)CC2)cc1 | 0 | 8 | 30 |  |  |  |  | inactive |  |  |
| C=Cc1c(CCC)nn(CCCN2CCN(c3ccc(C)cc3)CC2)c(=O)c1N | 3 | 7 | 22 | inactive |  |  |  |  |  |  |
| Cc1c(C#N)c(-c2ccccc2)nn1CCCN1CCN(c2ccc([N+](=O)[O-])cc2)CC1 | 0 | 21 | 49 | inactive |  |  |  |  |  |  |
| C=Cc1c(C)nn(CCCCN2CCN(c3ccccc3OCC)CC2)c(=O)c1N |  |  |  |  |  |  |  |  | inactive | inactive |
| CCC(=O)c1c(C)nn(CCCN2CCN(c3ccc(C)cc3)CC2)c(=O)c1N | 9 | 40 | 29 |  |  |  |  | inactive |  |  |
| CC(=O)c1cccn1CCCN1CCN(c2ccc(F)cc2)CC1 | 0 | 16 | 38 | inactive |  |  |  |  |  |  |
| CC(=O)c1cccn1CCCN1CCN(c2cccc(Cl)c2)CC1 | 3 | 41 | 54 |  |  |  |  | inactive |  |  |

| Structure (SMILES) | inhibition in vivo at 10 mg/kg (Mus musculus [1]) [%] | inhibition in vivo at 20 mg/kg (Mus musculus [2]) [%] | inhibition in vivo at 40 mg/kg (Mus musculus [3]) [%] | inhibition (Mus musculus [4]) | inhibition in vivo at 80 mg/kg (Mus musculus [5]) [%] | inhibition in vivo at 30 mg/kg (Mus musculus [6]) [%] | inhibition (Mus musculus [7]) | inhibition (Mus musculus [8]) | inhibition (Mus musculus [1]) | inhibition (Mus musculus [6]) |
| --- | --- | --- | --- | --- | --- | --- | --- | --- | --- | --- |
| CCCCC(=O)c1c(C)nn(CCCN2CCN(c3ccc(C)cc3)CC2)c(=O)c1N | 8 | 23 | 15 |  |  |  |  | inactive |  |  |
| COc1cccc(N2CCN(CCCn3c(-c4ccccc4)coc3=O)CC2)c1 | 8 | 25 | 39 |  |  |  |  | inactive |  |  |
| C/C=C/c1c(C)nn(CCCN2CCN(c3ccc(C)cc3)CC2)c(=O)c1N | 0 | 44 | 63 |  |  |  |  | inactive |  |  |
| O=c1occ(-c2ccccc2)n1CCCN1CCN(c2cccc(Cl)c2)CC1 | 7 | 31 | 38 |  |  |  |  | inactive |  |  |
| COc1cccc(N2CCN(CCCn3nc(-c4ccccc4)c(C#N)c3C)CC2)c1 | 0 | 21 | 34 |  |  |  |  | inactive |  |  |
| CC(=O)c1cccn1CCCN1CCN(c2ccc(C)cc2)CC1 | 12 | 7 | 9 |  | 4 |  |  |  |  |  |
| COc1cccc(N2CCN(CCCn3cccc3C(C)=O)CC2)c1 | 0 | 26 | 52 | inactive |  |  |  |  |  |  |
| CC(=O)c1c(C)nn(CCCN2CCN(c3ccc(C)cc3)CC2)c(=O)c1N | 19 |  |  |  |  | 46 | inactive |  |  |  |
| C=Cc1c(C)nn(CCCCN2CCN(c3ccc(C)cc3)CC2)c(=O)c1N | 3 |  |  |  |  | 42 | inactive |  |  |  |
| C=Cc1c(CC)nn(CCCN2CCN(c3ccc(C)cc3)CC2)c(=O)c1N | 0 | 0 | 28 | inactive |  |  |  |  |  |  |
| C=Cc1c(C)nn(CCCN2CCN(c3ccc(C)cc3)CC2)c(=O)c1N | 33 |  | 65 | inactive |  | 59 |  |  |  |  |
| C=Cc1c(C)nn(CCCN2CCN(C(=O)c3ccc(Cl)c(F)c3)CC2)c(=O)c1N |  |  |  |  |  |  |  |  | inactive | inactive |
| O=c1occ(-c2ccccc2)n1CCCN1CCN(c2ccc(F)cc2)CC1 | 14 | 12 | 34 | inactive |  |  |  |  |  |  |
| C=Cc1c(CCCC)nn(CCCN2CCN(c3ccc(C)cc3)CC2)c(=O)c1N | 0 | 41 | 48 |  |  |  |  | inactive |  |  |
| C=Cc1c(C)nn(CCCN2CCCN(c3ccc(C)cc3)CC2)c(=O)c1N | 0 | 10 | 31 | inactive |  |  |  |  |  |  |
| CCCC(=O)c1c(C)nn(CCCN2CCN(c3ccc(C)cc3)CC2)c(=O)c1N | 0 | 25 | 32 |  |  |  |  | inactive |  |  |

— ChEMBL document CHEMBL3612024, “Synthesis of five and six-membered heterocycles bearing an arylpiperazinylalkyl side chain as orally active antinociceptive agents” (2015)
